Reference: ChEMBL document CHEMBL1201862, “PubChem BioAssay data set” (2004)
Blank lines part the entries; values can stand above or below the compound they belong to. Active and inactive are the calls of the source.

Key:
[1] = molecular target: T1, Eukaryotic translation initiation factor 2-alpha kinase 3 (Homo sapiens, UniProt Q9NZJ5); experiment: Dose response cell-based high-throughput screening assay to measure PERK inhibition. [Related pubchem assays: 1416 ]; format: functional
[2] = molecular target: T1, Eukaryotic translation initiation factor 2-alpha kinase 3; experiment: Counterscreen assay for PERK inhibitors: Dose response cell-based high throughput screening assay to measure inhibition of PERK at 6 hours. [Related pubchem assays: 1522, 1416 ]; format: functional
[3] = molecular target: T2, Voltage-gated N-type calcium channel alpha-1B subunit/Amyloid beta A4 precursor protein-binding family A member 1 (Homo sapiens, UniProt Q00975+Q02410); experiment: disruptors of Mint-PDZ/N-type channel peptide interaction – biochemical, HTRF, set 2, SAR follow-up (AID 434980); format: functional
T2 sequence (Q00975 whole entry): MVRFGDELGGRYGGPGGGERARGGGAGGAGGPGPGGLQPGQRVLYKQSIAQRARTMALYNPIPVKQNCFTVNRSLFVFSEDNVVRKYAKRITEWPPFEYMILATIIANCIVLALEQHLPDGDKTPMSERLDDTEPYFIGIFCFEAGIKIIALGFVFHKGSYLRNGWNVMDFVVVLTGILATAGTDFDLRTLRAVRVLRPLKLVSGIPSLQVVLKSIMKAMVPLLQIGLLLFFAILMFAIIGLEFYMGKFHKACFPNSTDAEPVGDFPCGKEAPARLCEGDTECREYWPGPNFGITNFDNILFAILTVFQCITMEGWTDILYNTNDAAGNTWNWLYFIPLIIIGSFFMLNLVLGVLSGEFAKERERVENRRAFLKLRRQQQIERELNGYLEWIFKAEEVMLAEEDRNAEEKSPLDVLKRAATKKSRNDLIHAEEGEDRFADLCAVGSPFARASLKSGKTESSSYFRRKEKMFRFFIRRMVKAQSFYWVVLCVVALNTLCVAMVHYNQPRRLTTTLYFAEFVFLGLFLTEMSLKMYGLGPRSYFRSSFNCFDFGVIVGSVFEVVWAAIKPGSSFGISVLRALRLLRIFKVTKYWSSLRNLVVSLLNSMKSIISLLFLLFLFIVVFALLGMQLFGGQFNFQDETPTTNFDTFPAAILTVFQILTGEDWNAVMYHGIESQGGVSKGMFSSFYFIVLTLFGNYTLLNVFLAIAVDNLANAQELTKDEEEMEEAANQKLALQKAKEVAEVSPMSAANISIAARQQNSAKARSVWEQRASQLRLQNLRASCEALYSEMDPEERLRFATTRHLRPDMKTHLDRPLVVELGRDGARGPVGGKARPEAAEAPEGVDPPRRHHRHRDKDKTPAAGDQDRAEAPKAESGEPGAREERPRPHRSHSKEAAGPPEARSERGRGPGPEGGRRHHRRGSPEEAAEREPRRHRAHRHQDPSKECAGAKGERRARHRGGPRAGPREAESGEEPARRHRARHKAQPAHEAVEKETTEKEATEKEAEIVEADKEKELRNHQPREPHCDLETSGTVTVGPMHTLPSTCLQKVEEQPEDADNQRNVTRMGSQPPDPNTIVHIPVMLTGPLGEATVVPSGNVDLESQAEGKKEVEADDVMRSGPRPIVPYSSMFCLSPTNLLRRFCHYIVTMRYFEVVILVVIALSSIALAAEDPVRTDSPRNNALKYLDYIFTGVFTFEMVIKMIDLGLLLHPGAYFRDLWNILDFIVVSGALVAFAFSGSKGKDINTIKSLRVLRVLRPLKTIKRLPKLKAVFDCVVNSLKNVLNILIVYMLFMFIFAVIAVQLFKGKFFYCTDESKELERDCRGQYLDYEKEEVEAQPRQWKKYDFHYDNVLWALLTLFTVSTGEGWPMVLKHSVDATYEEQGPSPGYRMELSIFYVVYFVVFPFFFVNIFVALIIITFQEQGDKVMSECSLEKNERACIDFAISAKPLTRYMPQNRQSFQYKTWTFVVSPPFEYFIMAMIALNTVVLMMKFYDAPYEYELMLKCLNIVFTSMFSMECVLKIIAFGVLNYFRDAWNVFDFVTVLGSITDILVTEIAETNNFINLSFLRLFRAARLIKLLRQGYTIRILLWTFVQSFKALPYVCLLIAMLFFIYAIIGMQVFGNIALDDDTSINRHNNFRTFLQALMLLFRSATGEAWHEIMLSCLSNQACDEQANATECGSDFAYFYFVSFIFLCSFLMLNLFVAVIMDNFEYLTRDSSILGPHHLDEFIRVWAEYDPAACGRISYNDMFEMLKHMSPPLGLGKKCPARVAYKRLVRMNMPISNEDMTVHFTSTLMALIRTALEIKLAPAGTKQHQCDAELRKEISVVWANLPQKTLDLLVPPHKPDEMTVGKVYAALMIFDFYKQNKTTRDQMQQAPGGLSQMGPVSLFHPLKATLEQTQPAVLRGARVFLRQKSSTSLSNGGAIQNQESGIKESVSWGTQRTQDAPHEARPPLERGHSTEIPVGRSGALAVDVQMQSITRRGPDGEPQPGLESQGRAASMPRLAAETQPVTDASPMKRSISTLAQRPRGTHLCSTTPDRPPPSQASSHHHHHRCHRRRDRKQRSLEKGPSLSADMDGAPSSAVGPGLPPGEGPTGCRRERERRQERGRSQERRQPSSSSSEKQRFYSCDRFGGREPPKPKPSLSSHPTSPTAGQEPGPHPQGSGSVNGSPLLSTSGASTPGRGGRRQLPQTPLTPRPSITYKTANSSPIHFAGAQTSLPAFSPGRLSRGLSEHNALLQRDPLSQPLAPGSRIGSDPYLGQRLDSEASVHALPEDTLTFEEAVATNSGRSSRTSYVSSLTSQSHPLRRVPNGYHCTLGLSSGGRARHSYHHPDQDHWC
T2 sequence (Q02410 whole entry): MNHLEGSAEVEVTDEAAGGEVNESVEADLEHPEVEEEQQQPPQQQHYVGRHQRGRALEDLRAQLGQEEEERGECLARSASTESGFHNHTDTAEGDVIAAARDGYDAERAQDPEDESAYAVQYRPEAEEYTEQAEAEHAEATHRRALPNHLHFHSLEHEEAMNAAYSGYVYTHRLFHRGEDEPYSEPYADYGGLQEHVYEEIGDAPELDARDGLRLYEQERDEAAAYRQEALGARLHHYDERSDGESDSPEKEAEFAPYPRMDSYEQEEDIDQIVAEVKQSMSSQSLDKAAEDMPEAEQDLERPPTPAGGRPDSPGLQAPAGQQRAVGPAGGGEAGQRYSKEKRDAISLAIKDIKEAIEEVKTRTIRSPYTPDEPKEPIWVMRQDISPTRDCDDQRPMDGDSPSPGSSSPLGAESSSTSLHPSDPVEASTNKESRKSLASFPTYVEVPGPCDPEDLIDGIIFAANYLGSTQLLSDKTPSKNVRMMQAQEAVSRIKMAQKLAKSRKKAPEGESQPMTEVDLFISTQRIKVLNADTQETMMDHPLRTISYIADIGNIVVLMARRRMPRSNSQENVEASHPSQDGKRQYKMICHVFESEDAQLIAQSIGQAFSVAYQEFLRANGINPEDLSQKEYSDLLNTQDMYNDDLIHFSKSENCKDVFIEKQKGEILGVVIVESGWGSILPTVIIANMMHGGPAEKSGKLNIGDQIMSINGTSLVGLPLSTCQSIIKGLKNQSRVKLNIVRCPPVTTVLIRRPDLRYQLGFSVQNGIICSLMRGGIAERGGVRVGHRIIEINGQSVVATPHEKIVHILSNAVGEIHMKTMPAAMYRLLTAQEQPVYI

[4] = molecular target: T2, Voltage-gated N-type calcium channel alpha-1B subunit/Amyloid beta A4 precursor protein-binding family A member 1; experiment: disruptors of Mint-PDZ/N-type channel peptide interaction – biochemical, HTRF, SAR follow-up (AID 2489); format: functional
Protein Rev = Protein Rev (Human immunodeficiency virus type 1 group M subtype B (isolate HXB2)(HIV-1), UniProt P04618); experiment: blockers of HIV Rev/RRE RNA complex – biochemical, fluorescence polarization, HIV-1, dose response (AID 434976); design: species or system Human immunodeficiency virus 1
Protein Rev, sequence (P04618 whole entry): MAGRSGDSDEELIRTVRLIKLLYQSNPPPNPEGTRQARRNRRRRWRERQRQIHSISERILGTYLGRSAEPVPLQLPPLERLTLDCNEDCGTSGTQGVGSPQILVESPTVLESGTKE

Hexokinase HKDC1 = molecular target: T3, Hexokinase HKDC1 (Homo sapiens, UniProt Q2TB90); experiment: inhibition of HKDC1 glucose phosphorylation – biochemical, W721R variant, dose response (AID 504729); format: functional
T3 sequence (Q2TB90 whole entry): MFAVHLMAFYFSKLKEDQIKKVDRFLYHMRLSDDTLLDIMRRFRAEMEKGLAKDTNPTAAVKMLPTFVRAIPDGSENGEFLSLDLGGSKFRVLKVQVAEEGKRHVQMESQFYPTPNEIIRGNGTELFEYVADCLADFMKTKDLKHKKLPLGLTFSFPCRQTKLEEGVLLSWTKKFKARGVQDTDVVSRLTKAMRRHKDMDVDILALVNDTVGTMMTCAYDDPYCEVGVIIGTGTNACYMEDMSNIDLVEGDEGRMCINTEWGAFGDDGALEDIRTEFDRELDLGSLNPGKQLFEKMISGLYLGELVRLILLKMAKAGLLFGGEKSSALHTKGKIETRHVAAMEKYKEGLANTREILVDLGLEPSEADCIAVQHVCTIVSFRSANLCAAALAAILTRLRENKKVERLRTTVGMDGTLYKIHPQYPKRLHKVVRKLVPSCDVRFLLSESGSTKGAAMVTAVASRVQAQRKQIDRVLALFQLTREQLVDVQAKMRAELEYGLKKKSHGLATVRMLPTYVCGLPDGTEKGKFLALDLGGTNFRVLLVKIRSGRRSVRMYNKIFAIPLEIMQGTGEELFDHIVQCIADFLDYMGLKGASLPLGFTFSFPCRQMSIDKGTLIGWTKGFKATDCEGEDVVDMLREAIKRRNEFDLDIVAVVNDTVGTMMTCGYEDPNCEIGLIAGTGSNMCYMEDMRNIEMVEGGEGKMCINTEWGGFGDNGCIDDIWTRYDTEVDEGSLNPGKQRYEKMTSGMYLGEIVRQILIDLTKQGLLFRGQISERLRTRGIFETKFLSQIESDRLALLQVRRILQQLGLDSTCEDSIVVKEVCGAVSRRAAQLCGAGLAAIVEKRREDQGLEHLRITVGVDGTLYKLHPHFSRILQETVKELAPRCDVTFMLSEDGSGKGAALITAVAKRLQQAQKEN

[5] = molecular target: T4, Zinc finger protein mex-5 (Caenorhabditis elegans, UniProt Q9XUB2); experiment: potency of MEX-5 RNA-binding blockers – biochemical, C. elegans, fluorescence polarization, dose response (AID 1960)
T4 sequence (Q9XUB2 whole entry): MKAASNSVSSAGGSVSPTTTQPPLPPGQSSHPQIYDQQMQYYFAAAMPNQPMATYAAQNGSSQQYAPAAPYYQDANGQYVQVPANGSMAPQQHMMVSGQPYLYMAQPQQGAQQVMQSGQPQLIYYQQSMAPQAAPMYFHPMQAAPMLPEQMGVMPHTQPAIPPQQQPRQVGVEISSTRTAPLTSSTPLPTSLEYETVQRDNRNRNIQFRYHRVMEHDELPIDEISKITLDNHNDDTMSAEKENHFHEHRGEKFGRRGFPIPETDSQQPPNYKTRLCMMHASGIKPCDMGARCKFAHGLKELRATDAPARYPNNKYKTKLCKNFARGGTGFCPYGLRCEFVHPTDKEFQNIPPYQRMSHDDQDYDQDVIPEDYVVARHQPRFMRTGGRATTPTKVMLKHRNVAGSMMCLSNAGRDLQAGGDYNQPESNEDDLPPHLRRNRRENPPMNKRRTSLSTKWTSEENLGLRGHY

[6] = molecular target: Female germline-specific tumor suppressor gld-1 (Caenorhabditis elegans, UniProt Q17339); experiment: blockers of GLD-1/TGE RNA complex formation – biochemical, fluorescence polarization, C. elegans, dose response (AID 2802);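 note: fluorescence polarization of labeled TGE RNA bound by purified gld-1 protein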
Female germline-specific tumor suppressor gld-1, sequence (Q17339 whole entry): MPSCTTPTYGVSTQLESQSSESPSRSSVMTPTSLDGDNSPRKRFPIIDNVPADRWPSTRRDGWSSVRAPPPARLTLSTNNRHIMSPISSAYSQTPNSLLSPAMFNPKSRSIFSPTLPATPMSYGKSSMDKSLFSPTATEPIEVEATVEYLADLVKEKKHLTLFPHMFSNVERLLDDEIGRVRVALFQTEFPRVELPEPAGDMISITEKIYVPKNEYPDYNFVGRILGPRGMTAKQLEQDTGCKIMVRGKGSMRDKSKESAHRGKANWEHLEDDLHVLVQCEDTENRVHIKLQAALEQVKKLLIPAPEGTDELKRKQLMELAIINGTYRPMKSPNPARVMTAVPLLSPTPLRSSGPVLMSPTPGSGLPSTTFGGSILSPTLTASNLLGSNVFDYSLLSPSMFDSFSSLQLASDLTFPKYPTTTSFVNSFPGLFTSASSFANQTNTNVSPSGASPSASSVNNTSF

INS1 = experiment: INS-1E survival protection against cytokine death – cell-based, luminescence, retest, dose response (AID 449756); format: functional; conditions: Rattus norvegicus;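 note: cell death triggered by IL-1 beta plus TNF-alpha plus IFN-gamma mixture; protective hits raise ATP signal compared with cytokine alone wells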
[7] = molecular target: T5, RNA-binding protein pos-1 (Caenorhabditis elegans, UniProt G5EF15); experiment: disruptors of C. elegans POS-1 RNA interaction – biochemical, fluorescence polarization, dose response (AID 1964);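 note: purified POS-1 fused to maltose binding protein made in E. coli; potency of compounds blocking POS-1 binding to fluorescent RNA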
T5 sequence (G5EF15 whole entry): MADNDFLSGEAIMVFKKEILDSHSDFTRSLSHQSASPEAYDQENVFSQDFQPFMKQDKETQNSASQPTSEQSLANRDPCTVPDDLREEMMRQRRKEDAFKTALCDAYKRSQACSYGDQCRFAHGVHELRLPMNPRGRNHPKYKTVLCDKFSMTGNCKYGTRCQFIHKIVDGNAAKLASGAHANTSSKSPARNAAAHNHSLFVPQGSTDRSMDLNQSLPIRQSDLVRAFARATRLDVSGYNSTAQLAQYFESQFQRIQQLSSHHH

T1 sequence (Q9NZJ5 whole entry): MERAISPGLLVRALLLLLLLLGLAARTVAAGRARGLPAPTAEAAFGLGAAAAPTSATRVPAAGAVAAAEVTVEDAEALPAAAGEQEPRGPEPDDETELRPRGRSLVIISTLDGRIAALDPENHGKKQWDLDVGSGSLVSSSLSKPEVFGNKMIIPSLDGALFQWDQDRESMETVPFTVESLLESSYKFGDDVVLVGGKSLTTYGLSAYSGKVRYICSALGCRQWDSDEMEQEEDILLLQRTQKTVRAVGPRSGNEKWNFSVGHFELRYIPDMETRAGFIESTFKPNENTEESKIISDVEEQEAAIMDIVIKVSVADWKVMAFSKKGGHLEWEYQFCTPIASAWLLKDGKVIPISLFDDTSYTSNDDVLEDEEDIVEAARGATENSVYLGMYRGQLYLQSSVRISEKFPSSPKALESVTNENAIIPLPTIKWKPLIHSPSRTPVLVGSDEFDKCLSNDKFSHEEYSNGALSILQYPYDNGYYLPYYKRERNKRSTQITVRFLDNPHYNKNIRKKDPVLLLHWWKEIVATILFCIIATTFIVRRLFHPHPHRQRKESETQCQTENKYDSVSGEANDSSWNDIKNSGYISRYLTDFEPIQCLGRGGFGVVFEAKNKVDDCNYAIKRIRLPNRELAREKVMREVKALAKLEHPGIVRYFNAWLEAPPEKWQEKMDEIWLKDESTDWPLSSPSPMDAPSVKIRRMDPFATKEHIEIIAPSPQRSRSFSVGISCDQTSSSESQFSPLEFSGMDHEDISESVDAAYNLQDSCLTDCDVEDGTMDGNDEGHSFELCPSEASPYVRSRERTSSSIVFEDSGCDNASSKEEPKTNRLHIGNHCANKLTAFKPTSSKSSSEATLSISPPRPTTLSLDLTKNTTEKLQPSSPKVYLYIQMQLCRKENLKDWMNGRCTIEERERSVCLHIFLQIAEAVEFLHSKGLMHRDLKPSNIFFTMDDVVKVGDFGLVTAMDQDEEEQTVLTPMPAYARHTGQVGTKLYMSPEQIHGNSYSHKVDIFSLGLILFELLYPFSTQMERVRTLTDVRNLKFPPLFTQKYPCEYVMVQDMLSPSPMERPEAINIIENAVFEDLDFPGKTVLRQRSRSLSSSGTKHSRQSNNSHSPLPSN

EC50 [1]: > 55.7 µM (not active)
EC50 [2]: > 55.7 µM (not active)
Structure (SMILES): O=C(O)c1ccc(-c2nc(-c3ccccc3)c(-c3cccs3)[nH]2)cc1

IC50 [3]: > 56.8 µM (inactive)
IC50 [4]: 29.2 µM (active)
Structure (SMILES): O=C(NCCc1cccnc1)c1cc(-c2ccco2)nc2ccccc12

Structure (SMILES): COc1cc2c(cc1OC)-c1c(OC)c(OC)c(OC)c3ccnc(c13)C2=O [OXOPURPUREINE]
IC50 (Protein Rev): > 75.4 µM (not active)
IC50 (Hexokinase HKDC1): 12.1 µM (active)
EC50 [5]: 4.83 µM (active)
IC50 [6]: 6.15 µM (active)
AC50 (INS1): 3.34 µM (active)
EC50 [7]: 28.6 µM (inconclusive)
